Experimental findings from patent US8673905B2, “Imidazo pyrazines” (Hoffmann-La Roche Inc., priority 2011, dated 2014) are described below.

Counter-ions that a name gives are not always drawn. Bounds are passed on as bounds.

The target of one assay is human recombinant FLT3 (Homo sapiens (Human), UniProt P36888). The experiment in a line: FLT3 Kinase Assay (Caliper mobility shift). It is filed as biochemical. As to conditions: for IC50: 100 μM ATP, 28° C., 90 minutes, read-out: Enzyme IC50 (μM) FLT3; for inhibition at 10 µM: 10 μM test compound, reported where IC50 was not determined, read-out: % inhibition of FLT3 at 10 μM test compound concentration. The protocol:
After incubation, the reaction product was analyzed by electrophoretic mobility shift run on Caliper by manufacturer's protocol.

Another assay deals with Molm13 cells. The experiment in a line: Cell Glo Viability Assay (Luminescence), Molm13. As to conditions: Homo sapiens, MOLM-13, 120 h, 5 days, CellTiter-Glo, read-out: Cellular EC50 (μM) Molm13. Type of assay: cell-based. The protocol: (§1) Molm13 cells, a human acute monocytic leukemia cell line, and MV4-11 cells, a human leukemia cell line known to express mutated FLT3 cells (both from ATCC) were seeded separately at 2000 cells per well in 90 μL of RPMI1640 medium supplemented with 10% FBS in 96-well black-walled plates (BD Falcon). Test compounds were diluted at ten times of assay concentrations, 10 μL was added into duplicate wells. Plates were incubated at 37° C. with 5% CO2 for 5 days. Cell viability was assayed by CellTiter-Glo® Luminescent Cell Viability Assay (Promega) following manufacturer's protocol.
(§2) The results of this assay, given as EC50 values, indicate the concentration of test compound that inhibits tumor cell proliferation by 50%.
On the technique in general: In ATP-based viability assays light output follows the ATP content of the culture.

For the next assay, the system named is MV4-11 cells. Kind of assay: Cell Glo Viability Assay (Luminescence), MV4-11. Type of assay: cell-based. As to conditions: Homo sapiens, 120 h; MV4-11 cells (mutated FLT3), 5 days, CellTiter-Glo; read-out: Cellular EC50 (μM) MV4-11. On the procedure: as §1, §2

human recombinant FLT3, sequence (P36888 27-993): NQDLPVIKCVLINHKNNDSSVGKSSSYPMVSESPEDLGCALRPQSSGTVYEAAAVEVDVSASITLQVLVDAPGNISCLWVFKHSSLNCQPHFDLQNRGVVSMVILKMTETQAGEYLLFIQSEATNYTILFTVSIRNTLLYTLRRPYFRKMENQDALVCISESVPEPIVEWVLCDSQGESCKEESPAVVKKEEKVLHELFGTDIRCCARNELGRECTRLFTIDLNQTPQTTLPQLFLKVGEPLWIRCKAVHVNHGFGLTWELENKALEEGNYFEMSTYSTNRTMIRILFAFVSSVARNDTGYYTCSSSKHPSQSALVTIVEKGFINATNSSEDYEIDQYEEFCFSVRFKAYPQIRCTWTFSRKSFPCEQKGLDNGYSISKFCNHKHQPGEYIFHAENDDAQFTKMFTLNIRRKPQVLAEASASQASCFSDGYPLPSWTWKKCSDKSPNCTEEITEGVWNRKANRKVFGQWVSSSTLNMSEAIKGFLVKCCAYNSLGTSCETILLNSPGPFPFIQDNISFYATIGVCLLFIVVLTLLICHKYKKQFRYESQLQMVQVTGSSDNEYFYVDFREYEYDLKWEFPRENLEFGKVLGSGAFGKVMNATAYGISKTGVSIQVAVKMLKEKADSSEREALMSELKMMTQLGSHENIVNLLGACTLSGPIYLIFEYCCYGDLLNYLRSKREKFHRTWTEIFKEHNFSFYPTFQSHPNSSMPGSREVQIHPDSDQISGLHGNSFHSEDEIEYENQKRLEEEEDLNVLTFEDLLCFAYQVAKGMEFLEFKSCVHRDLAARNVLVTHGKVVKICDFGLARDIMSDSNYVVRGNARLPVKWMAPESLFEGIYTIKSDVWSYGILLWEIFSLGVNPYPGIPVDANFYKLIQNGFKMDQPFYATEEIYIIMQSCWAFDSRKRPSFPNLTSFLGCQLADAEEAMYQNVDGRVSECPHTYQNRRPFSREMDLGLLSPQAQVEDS

For the compound `NCC(Nc1nccc(-c2cnc3c(N[C@H]4CC[C@H](N)CC4)nccn23)n1)c1ccccc1` (stereo partly drawn) [Example 77, N-{3-[2-(2-Amino-1-phenyl-ethylamino)-pyrimidin-4-yl]-imidazo[1,2-a]pyrazin-8-yl}-cyclohexane-1,4-diamine; hydrochloride], the half-maximal inhibitory concentration (IC50) (as a rule, the midpoint of a concentration-inhibition curve) on human recombinant FLT3 is < 0.005 µM. In addition, the EC50 (as a rule, the concentration that produces a half-maximal response) with Molm13 cells was 0.08 µM; in the assay on MV4-11 cells, 0.015 µM.
As to `N[C@H]1CC[C@H](Nc2nccn3c(-c4ccnc(NCc5cccc(Cl)c5)n4)cnc23)CC1` [Example 67, N-{3-[2-(3-Chloro-benzylamino)-pyrimidin-4-yl]-imidazo[1,2-a]pyrazin-8-yl}-cyclohexane-1,4-diamine; hydrochloride], the IC50 on human recombinant FLT3 was < 0.005 µM. For the same compound, the EC50 in the assay on Molm13 cells was 0.049 µM; in the assay with MV4-11 cells, 0.017 µM.
With `NCCC(Nc1nccc(-c2cnc3c(N[C@H]4CC[C@H](N)CC4)nccn23)n1)c1ccccc1` (stereo partly drawn) [Example 76, N-{3-[2-(3-Amino-1-phenyl-propylamino)-pyrimidin-4-yl]-imidazo[1,2-a]pyrazin-8-yl}-cyclohexane-1,4-diamine; hydrochloride], the half-inhibitory concentration (IC50) on human recombinant FLT3 was < 0.005 µM. For the same compound, the EC50 in the assay with Molm13 cells was determined as 0.301 µM; in the assay with MV4-11 cells, 0.232 µM.
As for `N[C@H]1CC[C@H](Nc2nccn3c(-c4ccnc(NCc5ccccc5Cl)n4)cnc23)CC1` [Example 83, N-{3-[2-(2-Chloro-benzylamino)-pyrimidin-4-yl]-imidazo[1,2-a]pyrazin-8-yl}-cyclohexane-1,4-diamine; hydrochloride], the IC50 at human recombinant FLT3 is < 0.005 µM. In addition, the figures for the EC50 in the assay with Molm13 cells and with MV4-11 cells were 0.021 µM and 0.016 µM, respectively.
Regarding `CN1CCN(c2nccn3c(-c4ccnc(NCc5ccc(Cl)cc5)n4)cnc23)CC1` [Example 59, (4-Chloro-benzyl)-{4-[8-(4-methyl-piperazin-1-yl)-imidazo[1,2-a]pyrazin-3-yl]-pyrimidin-2-yl}-amine; hydrochloride], the inhibition at 10 µM on human recombinant FLT3 was 29.2%.
For the compound `NCCC(Nc1cccc(-c2cnc3c(NCCN4CCOCC4)nccn23)n1)c1cccc(Cl)c1` (stereo not drawn) [Example 90, 1-(3-Chloro-phenyl)-N-1-{6-[8-(2-morpholin-4-yl-ethylamino)-imidazo[1,2-a]pyrazin-3-yl]-pyridin-2-yl}-propane-1,3-diamine hydrochloride], the IC50 at human recombinant FLT3 is < 0.005 µM. For the same compound, the EC50 was 0.034 µM in the assay with Molm13 cells and < 0.014 µM in the assay on MV4-11 cells.
On to `N[C@H]1CC[C@H](Nc2nccn3c(-c4cccc(NCc5ccsc5)n4)cnc23)CC1` [Example 84, N-(3-{6-[(Thiophen-3-ylmethyl)-amino]-pyridin-2-yl}-imidazo[1,2-a]pyrazin-8-yl)-cyclohexane-1,4-diamine; hydrochloride], for which, on human recombinant FLT3, the IC50 was < 0.005 µM. For the same compound, the results for the EC50 with Molm13 cells and in the assay with MV4-11 cells were 0.056 µM and 0.068 µM, respectively.
As to `CN1CCN(c2nccn3c(-c4ccnc(NCc5cccs5)n4)cnc23)CC1` [Example 64, {4-[8-(4-Methyl-piperazin-1-yl)-imidazo[1,2-a]pyrazin-3-yl]-pyrimidin-2-yl}-thiophen-2-ylmethyl-amine; hydrochloride], the inhibition at 10 µM on human recombinant FLT3 turned out to be 33.5%.
Regarding `NCC(Nc1cccc(-c2cnc3c(NCCN4CCOCC4)nccn23)n1)c1cccc(Cl)c1` (stereo not drawn) [Example 91, 1-(3-Chloro-phenyl)-N-1-{6-[8-(2-morpholin-4-yl-ethylamino)-imidazo[1,2-a]pyrazin-3-yl]-pyridin-2-yl}-ethane-1,2-diamine hydrochloride], on human recombinant FLT3, the IC50 was < 0.005 µM. Further, the EC50 with Molm13 cells and in the assay on MV4-11 cells was < 0.014 µM in each case.
As to `N[C@H]1CC[C@H](Nc2nccn3c(-c4cccc(NCc5ccccc5Cl)n4)cnc23)CC1` [Example 85, N-{3-[6-(2-Chloro-benzylamino)-pyridin-2-yl]-imidazo[1,2-a]pyrazin-8-yl}-cyclohexane-1,4-diamine; hydrochloride], the IC50 at human recombinant FLT3 is < 0.005 µM. In addition, the EC50 in the assay with Molm13 cells and in the assay with MV4-11 cells was < 0.014 µM throughout.
Consider `N[C@H]1CC[C@H](Nc2nccn3c(-c4ccnc(NCc5ccccc5)n4)cnc23)CC1` [Example 68, N-[3-(2-Benzylamino-pyrimidin-4-yl)-imidazo[1,2-a]pyrazin-8-yl]-cyclohexane-1,4-diamine; hydrochloride], for which, at human recombinant FLT3, the IC50 is < 0.005 µM. The EC50 in the assay with Molm13 cells was 0.061 µM; with MV4-11 cells it was 0.052 µM.
On to `CN1CCN(c2nccn3c(-c4cccc(NCc5ccc(Cl)cc5)n4)cnc23)CC1` [Example 71, (4-Chloro-benzyl)-{6-[8-(4-methyl-piperazin-1-yl)-imidazo[1,2-a]pyrazin-3-yl]-pyridin-2-yl}-amine; hydrochloride], for which the inhibition at 10 µM at human recombinant FLT3 was found to be 13.2%.
In the case of `NCC(Nc1cccc(-c2cnc3c(N[C@H]4CC[C@H](N)CC4)nccn23)n1)c1ccccc1` (stereo partly drawn) [Example 80, N-{3-[6-(2-Amino-1-phenyl-ethylamino)-pyridin-2-yl]-imidazo[1,2-a]pyrazin-8-yl}-cyclohexane-1,4-diamine; hydrochloride], at human recombinant FLT3, the IC50 is < 0.005 µM. In addition, the EC50 with Molm13 cells was 0.041 µM; in the assay on MV4-11 cells, < 0.014 µM.
As for `CNc1nccn2c(-c3ccnc(Nc4ccccc4)n3)cnc12` [Example 20, Methyl-[3-(2-phenylamino-pyrimidin-4-yl)-imidazo[1,2-a]pyrazin-8-yl]-amine], the IC50 at human recombinant FLT3 was < 0.005 µM. In addition, the EC50 in the assay with Molm13 cells was 0.052 µM; with MV4-11 cells, 0.041 µM.
